Columns and labels:
Huntington's Disease = details: in vivo; cited from earlier work
sound induced seizures = details: DBA/2 mice; cited from earlier work
focal cerebral ischemia [1] = details: cited from earlier work
global ischemia = details: in vivo; cited from earlier work
[2] = tested on: warm water tail withdrawal; details: rhesus monkeys; cited from earlier work
focal cerebral ischemia [3] = details: cited from earlier work; remark: listed apart in the source
formalin model = details: cited from earlier work
CNS ischemia = details: cited from earlier work
NMDA receptor [4] = experiment: Antagonism of cortical wedge depolarization induced by NMDA; assay type: cell-based, rat; details: for IC50: NMDA 40 μM, mean ± standard error (n=3)
Protocol: (§1) The depolarization of rat cortical wedges was used to test the selectivity and potency of the formula I compounds as AMPA and NTMDA antagonists using a technique similar to that described by Harrison and Simmonds. Harrison and Simmonds, Bri. J. Pharmacol., 84, 381-391 (1984). Generally, 4-ml aliquots of NMDA (40 μM), AMPA (40 μM), and kainate (10 μM) were superfused (2 ml/min.) on the grey matter at intervals of 15-20 minutes until stable responses were attained. The tissue was then exposed for 15 minutes to various concentrations of the formula I compounds before retesting the agonists. The IC50 values were calculated from linear regression of log dose-response curves, each point the mean of at least three observations on separate slices from more than one animal.

AMPA receptor [5] = experiment: AMPA receptor radioligand binding, displacement of [3H]AMPA (crude membranes of rat forebrain)
Protocol: (§2) The formula I compounds were tested for their ability to inhibit NMDA, AMPA, and kainic acid receptor binding to rat membranes in a radioligand binding assay using [^3 H]CGS19755, [^3 H]AMPA, and [^3 H]KA. For all radioligand binding assays, male Sprague-Dawley rats were used. Displacement of the specific binding [^3 H]CGS19755 (10 nM) to Triton-X-treated synaptosomal membranes of rat forebrain was used to determine NMDA receptor affinity. Non-specific binding was determined using 10 μM L-glutamate. Samples were incubated in an ice-bath for 30 minutes, and bound ligand was separated from the free ligand by rapid filtration through WHATMAN GF/B glass fiber filters. Murphy et al, British J. Pharmacol., 95, 932-938 (1988). Kainate binding was performed using washed synaptosomal membranes from the rat forebrain as described by Simon et al. Simon et al, J. Neurochem., 26, 141-147 (1976). Tritiated kainate (5 nM) was added to 50 mM Tris-HCl buffer (pH 7.4 at 4° C.) containing 200-300 μg/ml of tissue protein. Samples were incubated for 30 minutes in an ice-bath, then rapidly filtered using a Brandel cell harvester and WHATS GF/C filters. Filters were washed twice with 3 ml of cold buffer. Non-specific binding was determined using 100 μM non-labeled kainate. The binding of [^3 H]AMPA (5 nM) was conducted with crude membranes of rat forebrain in the presence of 100 mM KSCN as described by Nielson et al. Nielson et al, Eur. J. Med. Chem. Chem. Ther., 21, 433-437 (1986). Non-specific binding was determined with 10 μM non-labeled AHPA. The concentration of the formula I compound that inhibited 50% binding (IC50, mean ± standard error, n=3) as calculated by linear regression of displacement data transformed to the Hill equation as described by Bennett. Bennett, Neurotransmitter Receptor Binding, 57-90 (1978).

NMDA receptor [6] = experiment: NMDA receptor radioligand binding, displacement of [3H]CGS19755 (rat forebrain synaptosomal membranes)
Protocol: as §2

kainate (KA) receptor = experiment: Antagonism of cortical wedge depolarization induced by kainate; assay type: cell-based, rat; details: kainate 10 μM; mean ± standard error (n=3); 15 min
Protocol: as §1

kainic acid receptor = experiment: Kainate receptor radioligand binding, displacement of [3H]KA (washed synaptosomal membranes from rat forebrain); details: [3H]kainate 5 nM, pH 7.4; mean ± standard error (n=3); 21.0 of compound 2 is a single experiment (footnote d)
Protocol: as §2, with “The binding of [^3 H]AMPA (5 nM) was conducted with crude membranes of rat forebrain in the presence of 100 mM KSCN as described by Nielson et al. Nielson et al, Eur. J. Med. Chem. Chem. Ther., 21, 433-437 (1986).” left out, “The concentration of the formula I compound that inhibited 50% binding (IC50, mean ± standard error, n=3) as calculated by linear regression of displacement data transformed to the Hill equation as described by Bennett. Bennett, Neurotransmitter Receptor Binding, 57-90 (1978).” left out

AMPA receptor [7] = experiment: Antagonism of cortical wedge depolarization induced by AMPA; assay type: cell-based, rat; details: for IC50: AMPA 40 μM, mean ± standard error (n=3)
Protocol: as §1

[8] = tested on: global and focal ischemic damage; details: in vivo; cited from earlier work
[9] = [3H]AMPA 5 nM, 100 mM KSCN, mean ± standard error (n=3), read-out: IC50 AMPA (receptor binding)
[10] = [3H]CGS19755 10 nM, mean ± standard error (n=3), 0.96 of compound 2 is a single experiment (footnote d), read-out: IC50 NMDA (receptor binding)

Compound: O=C(O)[C@@H]1C[C@H]2C[C@@H](CP(=O)(O)O)CC[C@H]2CN1 (relative stereo) [LY274614]
- neuroprotection in animal model of Huntington's Disease (Huntington's Disease): neuroprotective

Compound: O=C(O)[C@H]1CN(C/C=C/P(=O)(O)O)CCN1 [D-(-)CPP-ene]
- anticonvulsant against sound induced seizures (sound induced seizures): anticonvulsant
- protection in focal cerebral ischemia model in cats (focal cerebral ischemia [1]): provided protection

Compound: CC1=NN=C(c2ccc(N)cc2)c2cc3c(cc2C1)OCO3 [GKYI 52466]
- neuroprotection in rat global ischemia models (global ischemia): effective neuroprotective agent

Compound: O=C(O)[C@@H]1C[C@H](CP(=O)(O)O)CCN1 [CGS 19755]
- analgesic in warm water tail withdrawal procedure [2]: analgesic
- protection in focal cerebral ischemia model in rats (focal cerebral ischemia [3]): provided protection

Compound: NC(CCCP(=O)(O)O)C(=O)O (racemic) [DL-AP5]
- analgesic in mouse formalin model (formalin model): analgesic

Compound: O=C(O)[C@H]1C[C@@H](Cc2nn[nH]n2)CCN1 (relative stereo) [LY233053]
- protection in CNS ischemia model in rabbits (CNS ischemia): provided protection

Compound: O=C(O)[C@@H]1C[C@H]2C[C@@H](c3nn[nH]n3)CC[C@H]2CN1 (relative stereo) [Compound 1, (3SR, 4aRS, 6SR, 8aRS)-6-(1(2)H-Tetrazole-5-yl)decahydroisoquinoline-3-carboxylic Acid]
- IC50 (NMDA receptor [4]): 7.5 ± 0.7 µM
- IC50 (AMPA receptor [5]; [9]): 12.8 ± 0.27 µM
- IC50 (NMDA receptor [6]; [10]): 1.56 ± 0.23 µM
- IC50 KA (cortical wedge depolarization) (kainate (KA) receptor): > 100 µM
- IC50 KA (receptor binding) (kainic acid receptor): 31.84 ± 2.31 µM
- IC50 (AMPA receptor [7]): 40.9 ± 5.2 µM

Compound: O=C(O)[C@@H]1C[C@H]2C[C@@H](c3nn[nH]n3)CC[C@H]2CN1 [Compound 2, (3S, 4aR, 6S, 8aR)-6-(1(2)H-Tetrazole-5-yl)decahydroisoquinoline-3-carboxylic Acid]
- IC50 (NMDA receptor [4]): 4.1 ± 0.3 µM
- NMDA receptor antagonism (NMDA receptor [4]; statement in words, Table II): AMPA and NMDA receptor antagonists
- IC50 (AMPA receptor [5]; [9]): 5.72 ± 0.89 µM
- IC50 (AMPA receptor [5]; text summary of Table I, read-out: IC50 for displacement of 3H-AMPA, summary statement): < 10 µM
- IC50 (NMDA receptor [6]; [10]): 0.96 µM
- IC50 (NMDA receptor [6]; text summary of Table I, read-out: IC50 for displacement of [3H]CGS19755, summary statement): < 10 µM
- IC50 KA (cortical wedge depolarization) (kainate (KA) receptor): > 100 µM
- IC50 KA (receptor binding) (kainic acid receptor): 21.0 µM
- IC50 (AMPA receptor [7]): 13.2 ± 2.4 µM
- AMPA receptor antagonism (AMPA receptor [7]; statement in words, Table II): AMPA and NMDA receptor antagonists

Compound: NS(=O)(=O)c1cccc2c1c([N+](=O)[O-])cc1nc(O)c(O)nc12 [NBQX, 2,3-dihydroxy-6-nitro-7-sulfamoylbenzo[f]quinoxaline]
- prevention of global and focal ischemic damage [8]: effective in preventing global and focal ischemic damage

Compound: C[C@]12N[C@H](Cc3ccccc31)c1ccccc12 [dizocilpine]
- protection in focal cerebral ischemia model in cats (focal cerebral ischemia [1]): provided protection
- protection in focal cerebral ischemia model in rats (focal cerebral ischemia [3]): provided protection

Compound: C/C(=C\C(N)C(=O)O)CP(=O)(O)O (stereo not shown) [CGP 37849]
- anticonvulsant against sound induced seizures (sound induced seizures): anticonvulsant

Reference: US5527810A, “Decahydroisoquinoline compounds as excitatory amino acid receptor antagonists” (Eli Lilly and Company, priority 1994, dated 1996)
